Laboratory results published in patent US20130303509A1, “NAMPT INHIBITORS” (AbbVie Inc., priority 2012, published 2013).

System: PC3 cells
Assay: NAMPT Cell Proliferation Assay
Type: cell-based
Details: Homo sapiens, PC-3, 120 h, 5 days incubation, cell viability by Cell Titer Glo
Outline: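 Seeded at 500 cells/well in RPMI with 10% heat-inactivated FBS and left to attach overnight at 37° C, 5% CO2. Compounds were added as 10-fold dilutions […] for 5 days, then viability was read by CellTiter-Glo. IC50s came from sigmoidal fits of percent inhibition.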

SMILES | IC50
CC(C)(O)C(=O)N1CCC(Oc2ccc(NC(=O)[C@H]3CCN(c4cccnc4)C3)cc2)CC1 [Example 17, (3S)-N-(4-{[1-(2-hydroxy-2-methylpropanoyl)piperidin-4-yl]oxy}phenyl)-1-(pyridin-3-yl)pyrrolidine-3-carboxamide] | 0.0937 µM
CC(C)C(=O)N1CCC(Oc2ccc(NC(=O)[C@H]3CCN(c4cccnc4)C3)cc2)CC1 [Example 12, (3S)-N-(4-{[1-(2-methylpropanoyl)piperidin-4-yl]oxy}phenyl)-1-(pyridin-3-yl)pyrrolidine-3-carboxamide] | 0.0844 µM
CC(C)C(=O)N1CCC(c2ccc(NC(=O)C3CN(c4ccc(F)nn4)C3)cc2)CC1 [Example 821, 1-(6-fluoropyridazin-3-yl)-N-{4-[1-(2-methylpropanoyl)piperidin-4-yl]phenyl}azetidine-3-carboxamide] | 0.165 µM
Cc1cc(N2CC(C(=O)Nc3ccc(C4CCN(C(=O)c5ccccc5)CC4)cc3)C2)cnc1F [Example 665, N-[4-(1-benzoylpiperidin-4-yl)phenyl]-1-(6-fluoro-5-methylpyridin-3-yl)azetidine-3-carboxamide] | 7.62 µM
O=C(Nc1ccc(OC2CCN(C(=O)CC(F)(F)F)CC2)cc1)C1CN(c2ccnnc2)C1 [Example 268, 1-(pyridazin-4-yl)-N-(4-{[1-(3,3,3-trifluoropropanoyl)piperidin-4-yl]oxy}phenyl)azetidine-3-carboxamide] | 0.0829 µM
O=C(Nc1ccc(OC2CN(C(=O)C3CCCC3)C2)cc1)C1CN(c2ccnnc2)C1 [Example 259, N-(4-{[1-(cyclopentylcarbonyl)azetidin-3-yl]oxy}phenyl)-1-(pyridazin-4-yl)azetidine-3-carboxamide] | 0.0726 µM
O=C(Nc1ccc(OC2CCN(C(=O)c3nccs3)CC2)cc1)C1CN(c2ccnnc2)C1 [Example 283, 1-(pyridazin-4-yl)-N-(4-{[1-(1,3-thiazol-2-ylcarbonyl)piperidin-4-yl]oxy}phenyl)azetidine-3-carboxamide] | 0.0725 µM
CC(C)(C)C(=O)N1CCC(c2ccc(C(=O)NC3CN(c4cccnn4)C3)s2)CC1 [Example 847, 5-[1-(2,2-dimethylpropanoyl)piperidin-4-yl]-N-[1-(pyridazin-3-yl)azetidin-3-yl]thiophene-2-carboxamide] | 0.115 µM
O=C(Nc1ccc(OC2CN(C(=O)c3ccccc3)C2)cc1)C1CN(c2ccnnc2)C1 [Example 206, N-{4-[(1-benzoylazetidin-3-yl)oxy]phenyl}-1-(pyridazin-4-yl)azetidine-3-carboxamide] | 0.0674 µM
O=C(Nc1ccc(C2CCN(C(=O)Cc3ccc(Cl)cc3)CC2)cc1)[C@H]1CCN(c2cccnn2)C1 [Example 686, (3S)-N-(4-{1-[(4-chlorophenyl)acetyl]piperidin-4-yl}phenyl)-1-(pyridazin-3-yl)pyrrolidine-3-carboxamide] | 0.0649 µM
O=C(Nc1ccc(S(=O)(=O)C2CCN(C(=O)c3ccc(F)cc3F)CC2)cc1)C1CN(c2cccnn2)C1 [Example 586, N-(4-{[1-(2,4-difluorobenzoyl)piperidin-4-yl]sulfonyl}phenyl)-1-(pyridazin-3-yl)azetidine-3-carboxamide] | 0.107 µM
O=C(Nc1ccc(C2CCN(C(=O)c3ccccc3F)CC2)cc1)[C@@H]1CCN(c2cccnn2)C1 [Example 794, (3R)—N-{4-[1-(2-fluorobenzoyl)piperidin-4-yl]phenyl}-1-(pyridazin-3-yl)pyrrolidine-3-carboxamide] | 0.196 µM
O=C(Nc1ccc(O[C@@H]2CCN(C(=O)Cc3ccc(C(F)(F)F)cc3)C2)cc1)C1CN(c2ccnnc2)C1 [Example 455, 1-(pyridazin-4-yl)-N-(4-{[(3R)-1-{[4-(trifluoromethyl)phenyl]acetyl}pyrrolidin-3-yl]oxy}phenyl)azetidine-3-carboxamide] | 0.458 µM
COCC(=O)N1CCC(c2ccc(NC(=O)C3CN(c4ccnnc4)C3)cc2)CC1 [Example 548, N-{4-[1-(methoxyacetyl)piperidin-4-yl]phenyl}-1-(pyridazin-4-yl)azetidine-3-carboxamide] | 0.0649 µM
O=C(Nc1ccc(OC2CN(C(=O)c3ccoc3)C2)cc1)C1CN(c2ccnnc2)C1 [Example 209, N-(4-{[1-(furan-3-ylcarbonyl)azetidin-3-yl]oxy}phenyl)-1-(pyridazin-4-yl)azetidine-3-carboxamide] | 0.0816 µM

Stronger by IC50, values ahead:

IC50 | SMILES
0.0623 µM | O=C(Nc1ccc(O[C@H]2CCN(C(=O)c3ccccc3F)C2)cc1)[C@H]1CCN(c2cccnn2)C1 [Example 825, (3S)—N-(4-{[(3S)-1-(2-fluorobenzoyl)pyrrolidin-3-yl]oxy}phenyl)-1-(pyridazin-3-yl)pyrrolidine-3-carboxamide]
0.0316 µM | O=C(Nc1ccc(C2CCN(C(=O)c3ccc(Cl)cc3)CC2)cc1)[C@H]1CCN(c2cccnn2)C1 [Example 663, (3S)-N-{4-[1-(4-chlorobenzoyl)piperidin-4-yl]phenyl}-1-(pyridazin-3-yl)pyrrolidine-3-carboxamide]
0.0263 µM | CC1CC1C(=O)N1CCC(Oc2ccc(NC(=O)[C@H]3CCN(c4cccnn4)C3)cc2)CC1 (stereo partly drawn) [Example 802, (3S)-N-[4-({1-[(2-methylcyclopropyl)carbonyl]piperidin-4-yl}oxy)phenyl]-1-(pyridazin-3-yl)pyrrolidine-3-carboxamide]
0.0202 µM | COc1ccc(C(=O)N2CCC(c3ccc(NC(=O)[C@H]4CCN(c5cccnn5)C4)cc3)CC2)cc1 [Example 705, (3S)-N-{4-[1-(4-methoxybenzoyl)piperidin-4-yl]phenyl}-1-(pyridazin-3-yl)pyrrolidine-3-carboxamide]
0.0116 µM | CCCCCCC(=O)N1CCC(c2ccc(NC(=O)[C@H]3CCN(c4cccnn4)C3)cc2)CC1 [Example 673, (3S)-N-[4-(1-heptanoylpiperidin-4-yl)phenyl]-1-(pyridazin-3-yl)pyrrolidine-3-carboxamide]
0.0102 µM | Cc1ccccc1C(=O)N1CCC(c2ccc(C(=O)NC3CN(c4cccnn4)C3)s2)CC1 [Example 812, 5-[1-(2-methylbenzoyl)piperidin-4-yl]-N-[1-(pyridazin-3-yl)azetidin-3-yl]thiophene-2-carboxamide]
0.00888 µM | N#Cc1cccc(C(=O)N2CCC(c3ccc(NC(=O)C4CN(c5cccnn5)C4)cc3)CC2)c1 [Example 352, N-{4-[1-(3-cyanobenzoyl)piperidin-4-yl]phenyl}-1-(pyridazin-3-yl)azetidine-3-carboxamide]
0.00886 µM | O=C(Nc1ccc(OC2CCN(C(=O)c3cscn3)CC2)cc1)C1CN(c2cccnn2)C1 [Example 218, 1-(pyridazin-3-yl)-N-(4-{[1-(1,3-thiazol-4-ylcarbonyl)piperidin-4-yl]oxy}phenyl)azetidine-3-carboxamide]
0.00868 µM | O=C(Nc1ccc(C2CCN(C(=O)Cc3cccc4ccccc34)CC2)cc1)C1CN(c2cccnn2)C1 [Example 410, N-{4-[1-(naphthalen-1-ylacetyl)piperidin-4-yl]phenyl}-1-(pyridazin-3-yl)azetidine-3-carboxamide]
0.00708 µM | CC(C)CCC(=O)N1CCC(c2ccc(NC(=O)C3CN(c4cccnn4)C3)cc2)CC1 [Example 324, N-{4-[1-(4-methylpentanoyl)piperidin-4-yl]phenyl}-1-(pyridazin-3-yl)azetidine-3-carboxamide]
0.00693 µM | CCC(CC)C(=O)N1CCC(c2ccc(NC(=O)[C@H]3CCN(c4cccnn4)C3)cc2)CC1 [Example 707, (3S)-N-{4-[1-(2-ethylbutanoyl)piperidin-4-yl]phenyl}-1-(pyridazin-3-yl)pyrrolidine-3-carboxamide]
0.00635 µM | CC[C@H](C(=O)N1CCC(c2ccc(NC(=O)C3CN(c4cccnn4)C3)cc2)CC1)c1ccccc1 [Example 399, N-(4-{1-[(2S)-2-phenylbutanoyl]piperidin-4-yl}phenyl)-1-(pyridazin-3-yl)azetidine-3-carboxamide]
0.00436 µM | CC(C)C(=O)N1CCC(c2ccc(NC(=O)C3CN(c4cccnn4)C3)c(F)c2)CC1 [Example 858, N-{2-fluoro-4-[1-(2-methylpropanoyl)piperidin-4-yl]phenyl}-1-(pyridazin-3-yl)azetidine-3-carboxamide]
0.00415 µM | COCCn1nc(C2CC2)cc1-c1ccc(NC(=O)C2CN(c3cccnn3)C2)cc1 [Example 807, N-{4-[3-cyclopropyl-1-(2-methoxyethyl)-1H-pyrazol-5-yl]phenyl}-1-(pyridazin-3-yl)azetidine-3-carboxamide]
0.0032 µM | CC(C)(C)C(=O)N1CCC(c2ccc(NC(=O)C3CN(c4ccnnc4)C3)c(F)c2)CC1 [Example 870, N-{4-[1-(2,2-dimethylpropanoyl)piperidin-4-yl]-2-fluorophenyl}-1-(pyridazin-4-yl)azetidine-3-carboxamide]
0.00205 µM | CC(C)(C)OC(=O)N1CCN(C(C)(C)C(=O)N2CCC(c3ccc(NC(=O)C4CN(c5cccnc5)C4)cc3)CC2)CC1 [Example 609, tert-butyl 4-(2-methyl-1-oxo-1-{4-[4-({[1-(pyridin-3-yl)azetidin-3-yl]carbonyl}amino)phenyl]piperidin-1-yl}propan-2-yl)piperazine-1-carboxylate]
0.00144 µM | O=C(Nc1ccc(C2CCN(C(=O)CN3CCOCC3)CC2)cc1)C1CN(c2cccnc2)C1 [Example 103, N-{4-[1-(morpholin-4-ylacetyl)piperidin-4-yl]phenyl}-1-(pyridin-3-yl)azetidine-3-carboxamide]
0.00141 µM | CC(C)(C(=O)N1CCC(c2ccc(NC(=O)C3CN(c4ccnnc4)C3)cc2)CC1)c1ccccc1 [Example 546, N-{4-[1-(2-methyl-2-phenylpropanoyl)piperidin-4-yl]phenyl}-1-(pyridazin-4-yl)azetidine-3-carboxamide]
0.00111 µM | O=C(Nc1ccc(C2CCN(C(=O)c3ccco3)CC2)cc1)[C@H]1CCN(c2cccnn2)C1 [Example 649, (3S)-N-{4-[1-(furan-2-ylcarbonyl)piperidin-4-yl]phenyl}-1-(pyridazin-3-yl)pyrrolidine-3-carboxamide]
0.00097 µM | CSCC(=O)N1CCC(c2ccc(NC(=O)C3CN(c4cccnn4)C3)cc2)CC1 [Example 334, N-(4-{1-[(methylsulfanyl)acetyl]piperidin-4-yl}phenyl)-1-(pyridazin-3-yl)azetidine-3-carboxamide]
